The results in this text go back to patent US9469645B2, “Compounds and compositions for the treatment of parasitic diseases” (Novartis AG, priority 2009, dated 2016).

One test concerns 3D7 P. falciparum strain. Nature of the test: parasite proliferation assay in infected red blood cells (SYBR Green I). Type of test: cell-based, Plasmodium falciparum. The note with it: Plasmodium falciparum, 3D7, Erythrocyte, 3D7 strain; read-out: EC50 3D7 strain. Summed up:
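P. falciparum 3D7 grown in O+ human erythrocytes to 3–8% parasitemia and exposed to compounds. Proliferation read as the increase in parasite DNA. Detection used SYBR Green I in saponin/triton-X/EDTA lysis buffer, with overnight lysis at room temperature.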

The test system of a further test is W2 strain. Kind of test: parasite proliferation assay in infected red blood cells (SYBR Green I), W2 strain. The note with it: Erythrocyte. Type of test: cell-based. The source says: Compounds of the invention can be assayed to measure their capacity to inhibit proliferation of parasitemia in infected red blood cells. The proliferation is quantified by the addition of SYBR Green I (INVITROGEN)® dye which has a high affinity for double stranded DNA.

The term EC50 denotes the concentration at which the effect is half-maximal. In the case of `Cc1ccc(Nc2c(-c3ccc(F)cc3)nc3n2CCN(Cc2ccc(N4CCOCC4)cc2)C3)cc1` [Compound 180], the EC50 is 730 nM in the test with 3D7 P. falciparum strain and 609 nM with W2 strain.

Consider `CCN(CC)c1ccc(CN2CCn3c(nc(-c4ccc(F)cc4)c3Nc3ccc(C)cc3)C2)cc1` [Compound 182], for which the EC50 came to 1370 nM in the test on 3D7 P. falciparum strain and 1080 nM in the test on W2 strain.

On to `Cc1ccc(Nc2c(-c3ccc(F)cc3)nc3n2CCN(Cc2ccc(OCCCN(C)C)cc2)C3)cc1` [Compound 183], for which the EC50 in the test with 3D7 P. falciparum strain stood at 1900 nM; in the test with W2 strain, 1340 nM.

Regarding `Cc1ccc(Nc2c(-c3ccc(F)cc3)nc3n2CCN(Cc2ccc(-c4ccncc4)cc2)C3)cc1` [Compound 184], the EC50 in the test on 3D7 P. falciparum strain was found to be 3650 nM; with W2 strain it was 859 nM.

Consider `CCC(=O)Nc1ccc(C[C@H](NC(=O)OC(C)(C)C)C(=O)N2CCn3c(nc(-c4ccc(F)cc4)c3Nc3ccc(C)cc3)C2)cc1` [Compound 185], for which the EC50 in the test on 3D7 P. falciparum strain is 350 nM; in the test on W2 strain it was 136 nM.

`CCCNC(=O)C[C@H](NC(=O)OC(C)(C)C)C(=O)N1CCn2c(nc(-c3ccc(F)cc3)c2Nc2ccc(C)cc2)C1` [Compound 186]: the EC50 with 3D7 P. falciparum strain is 5630 nM; in the test on W2 strain it was 2560 nM.

For `CCC(=O)Nc1ccc(C[C@H](N)C(=O)N2CCn3c(nc(-c4ccc(F)cc4)c3Nc3ccc(C)cc3)C2)cc1` [Compound 187], the EC50 in the test with 3D7 P. falciparum strain came out at 6680 nM; in the test with W2 strain, 3550 nM.

As for `CCCNC(=O)CC[C@H](N)C(=O)N1CCn2c(nc(-c3ccc(F)cc3)c2Nc2ccc(C)cc2)C1` [Compound 188], the EC50 in the test with 3D7 P. falciparum strain stood at 790 nM; in the test on W2 strain, 1100 nM.

With `CCCNC(=O)C[C@H](N)C(=O)N1CCn2c(nc(-c3ccc(F)cc3)c2Nc2ccc(C)cc2)C1` [Compound 189], the results for the EC50 in the test on 3D7 P. falciparum strain and with W2 strain were 370 nM and 392 nM, respectively.

For `Cc1ccc(Nc2c(-c3ccc(F)cc3)nc3n2CCN(C(=O)CC(N)C(F)(F)F)C3)cc1` (stereo not drawn) [Compound 190], the EC50 came out at 940 nM with 3D7 P. falciparum strain and 1070 nM in the test on W2 strain.

In the case of `Fc1ccc(Nc2c(-c3cccc(F)c3)nc3n2CCNC3)cc1` [Compound 191], the EC50 in the test on 3D7 P. falciparum strain is 170 nM; in the test with W2 strain, 151 nM.

Consider `Fc1ccc(-c2nc3n(c2Nc2ccc(Cl)c(F)c2)CCNC3)cc1` [Compound 192], for which the EC50 in the test with 3D7 P. falciparum strain turned out to be 110 nM; in the test on W2 strain, 95 nM.

On to `Cc1ccc(Nc2c(-c3ccc(F)cc3)nc3n2CCN(C(=O)[C@H]2CCC[C@H]2N)C3)cc1` [Compound 193], for which the EC50 with 3D7 P. falciparum strain turned out to be 90 nM; in the test on W2 strain it was 75 nM.

Consider `N[C@H](C(=O)N1CCn2c(nc(-c3ccc(F)cc3)c2Nc2ccc(F)cc2)C1)C(F)(F)F` [Compound 195], for which the EC50 in the test on 3D7 P. falciparum strain and in the test on W2 strain was 20 nM in each case.

Turning to `N[C@@H](C(=O)N1CCn2c(nc(-c3ccc(F)cc3)c2Nc2ccc(F)cc2)C1)C(F)(F)F` [Compound 196], the EC50 worked out at 320 nM in the test with 3D7 P. falciparum strain and 344 nM with W2 strain.

Regarding `CCCC(=O)Nc1ccc(C[C@H](N)C(=O)N2CCn3c(nc(-c4ccc(F)cc4)c3Nc3ccc(C)cc3)C2)cc1` [Compound 197], the EC50 with 3D7 P. falciparum strain was found to be 4160 nM; in the test on W2 strain, 1040 nM.

As to `Cc1ccc(Nc2c(-c3ccc(F)cc3)nc3n2CCN(C(=O)[C@H]2CCCO2)C3)cc1` [Compound 199], the EC50 was determined as 240 nM in the test with 3D7 P. falciparum strain and 157 nM with W2 strain.

As for `Cc1ccc(Nc2c(-c3ccc(F)cc3)nc3n2CCN(C(=O)C(C)Oc2ccccc2)C3)cc1` (stereo not drawn) [Compound 202], the EC50 was 160 nM in the test on 3D7 P. falciparum strain and 102 nM in the test on W2 strain.

Turning to `Cc1ccc(Nc2c(-c3ccc(F)cc3)nc3n2CCN(C(=O)C(C)Oc2cccc(Cl)c2)C3)cc1` (stereo not drawn) [Compound 203], the EC50 in the test on 3D7 P. falciparum strain is 970 nM; with W2 strain, 369 nM.

As for `Cc1ccc(Nc2c(-c3ccc(F)cc3)nc3n2CCN(C(=O)[C@@H](O)C(C)C)C3)cc1` [Compound 204], the EC50 with 3D7 P. falciparum strain and in the test on W2 strain was 10 nM each time.

On to `Cc1ccc(Nc2c(-c3ccc(F)cc3)nc3n2CCN(C(=O)Cc2ccncn2)C3)cc1` [Compound 206], for which the EC50 came out at 1200 nM in the test with 3D7 P. falciparum strain and 1170 nM with W2 strain.

Take `Fc1cccc(-c2nc3cnccn3c2Nc2ccc(Cl)c(F)c2)c1` [Compound 207]: the EC50 with 3D7 P. falciparum strain amounted to 9310 nM; in the test with W2 strain, 2420 nM.

Consider `Cc1ccc(Nc2c(-c3ccc(F)cc3)nc3n2CCN(C(=O)C(Oc2ccccc2C)C(C)C)C3)cc1` (stereo not drawn) [Compound 208], for which the EC50 in the test with 3D7 P. falciparum strain was determined as 5870 nM; in the test with W2 strain it was 1060 nM.

As for `Cc1ccc(Nc2c(-c3ccc(F)cc3)nc3n2CCN(C(=O)C2CCOCC2)C3)cc1` [Compound 209], the EC50 in the test with 3D7 P. falciparum strain is 11600 nM; in the test on W2 strain it was 4360 nM.

Turning to `CCO[C@@H](Cc1ccc(O)cc1)C(=O)N1CCn2c(nc(-c3ccc(F)cc3)c2Nc2ccc(C)cc2)C1` [Compound 210], the EC50 with 3D7 P. falciparum strain turned out to be 40 nM; in the test on W2 strain, 26 nM.

Take `Cc1ccc(Nc2c(-c3ccc(F)cc3)nc3n2CCN(C(=O)CC2CCCO2)C3)cc1` (stereo not drawn) [Compound 211]: the EC50 in the test on 3D7 P. falciparum strain was found to be 300 nM; with W2 strain, 283 nM.

Turning to `Cc1ccc(Nc2c(-c3ccc(F)cc3)nc3n2CCN(C(=O)C2CCOC2)C3)cc1` (stereo not drawn) [Compound 212], the EC50 amounted to 1950 nM in the test on 3D7 P. falciparum strain and 1980 nM with W2 strain.

For `Cc1ccc(Nc2c(-c3ccc(F)cc3)nc3n2CCN(C(=O)[C@@H](N)Cc2ccc(CN)cc2)C3)cc1` [Compound 213], the EC50 in the test with 3D7 P. falciparum strain was found to be 3800 nM; in the test with W2 strain, 4820 nM.

As to `CCN1CCC(CC(=O)N2CCn3c(nc(-c4ccc(F)cc4)c3Nc3ccc(C)cc3)C2)CC1` [Compound 214], the EC50 with 3D7 P. falciparum strain came to 2850 nM; in the test on W2 strain, 2010 nM.

For `Cc1ccc(Nc2c(-c3ccc(F)cc3)nc3n2CCN(C(=O)CC2CCOC2)C3)cc1` (stereo not drawn) [Compound 215], the EC50 with 3D7 P. falciparum strain worked out at 830 nM; in the test with W2 strain, 650 nM.

Turning to `Cc1ccc(Nc2c(-c3ccc(F)cc3)nc3n2CCN(C(=O)CC2CCCCO2)C3)cc1` (stereo not drawn) [Compound 216], the results for the EC50 in the test with 3D7 P. falciparum strain and with W2 strain were 300 nM and 248 nM, respectively.

Turning to `Fc1cccc(-c2nc3n(c2Nc2ccc(Cl)c(F)c2)CCNC3)c1` [Compound 217], the 50% effective concentration (EC50) in the test with 3D7 P. falciparum strain worked out at 130 nM; with W2 strain it was 106 nM.

With `CCCC(=O)NCc1ccc(C[C@H](N)C(=O)N2CCn3c(nc(-c4ccc(F)cc4)c3Nc3ccc(C)cc3)C2)cc1` [Compound 218], the EC50 worked out at 4710 nM in the test on 3D7 P. falciparum strain and 4010 nM with W2 strain.

For `CCC(=O)NCc1ccc(C[C@H](N)C(=O)N2CCn3c(nc(-c4ccc(F)cc4)c3Nc3ccc(C)cc3)C2)cc1` [Compound 219], the EC50 was determined as 4970 nM in the test on 3D7 P. falciparum strain and 3410 nM in the test on W2 strain.

Take `Cc1ccc(Nc2c(-c3ccc(F)cc3)nc3n2CCN(C(=O)CC2CCNCC2)C3)cc1` [Compound 220]: the values for the EC50 in the test with 3D7 P. falciparum strain and with W2 strain were 1130 nM and 937 nM, respectively.

Regarding `NC(C(=O)N1CCn2c(nc(-c3cccc(F)c3)c2Nc2ccc(Cl)c(F)c2)C1)C(F)(F)F` (stereo not drawn) [Compound 221], the EC50 in the test with 3D7 P. falciparum strain stood at 90 nM; in the test on W2 strain it was 83 nM.

Turning to `C[C@@H](C(=O)N1CCn2c(nc(-c3cccc(F)c3)c2Nc2ccc(Cl)c(F)c2)C1)c1ccccc1` [Compound 222], the EC50 was 140 nM in the test with 3D7 P. falciparum strain and 103 nM in the test with W2 strain.

`C[C@H](C(=O)N1CCn2c(nc(-c3cccc(F)c3)c2Nc2ccc(Cl)c(F)c2)C1)c1ccccc1` [Compound 223]: the EC50 came out at 260 nM in the test with 3D7 P. falciparum strain and 206 nM in the test on W2 strain.

For the compound `CC[C@H](C(=O)N1CCn2c(nc(-c3ccc(F)cc3)c2Nc2ccc(C)cc2)C1)c1ccccc1` [Compound 225], the figures for the EC50 with 3D7 P. falciparum strain and in the test with W2 strain were 550 nM and 316 nM, respectively.
